# Results reported in article PMC9848270, “Synthesis and biological assessment of indole derivatives containing penta-heterocycles scaffold as novel anticancer agents towards A549 and K562 cells” (Journal of Enzyme Inhibition and Medicinal Chemistry, 2023).
# Read-outs that look alike come from different tables or passages of the source.
# How the values were obtained:
# [1] = tested on: human chronic myeloid leukaemia cells (K562); assay: MTT antiproliferative assay, K562; type: cell-based; conditions: for inhibition at 10 µM: K562, 10 μM, read-out: Inhibition rate, K562
# Method: (§1) A549, PC-3, HepG2 and K562 cells were purchased from the Kunming cell bank of the Chinese academy of sciences. All cell lines were cultured in DMEM or RPMI 1640 complete medium. Logarithmic growth cells were cultured in 96-well plates at a concentration of 10^4 cells per well and pre-cultured for 24 h before adding test compounds. The MTT test with 5-Fluorouracil and Gefitinib as reference compounds were used to evaluate antiproliferative activity of target compounds in four human cancer line cells. For the estimation of the inhibition concentration (IC50), the Graph Pad Prism (GraphPad Software, San Diego, CA) was used.
# [2] = tested on: human non-small cell lung cancer cells (A549); assay: MTT antiproliferative assay, A549; type: cell-based; conditions: for inhibition at 10 µM: A549, 10 μM, read-out: Inhibition rate, A549
# Method: as §1
# [3] = tested on: normal cell line (HEK293); assay: MTT cytotoxicity, normal cell line HEK293; type: cell-based, human; conditions: Homo sapiens, HEK293; 10 μM; read-out: Inhibition rate, HEK293
# [4] = MTT cytotoxicity, normal cell line HEK293; type: cell-based, human; conditions: human; for IC50 at 48 h: HEK293 cells (normal cell line), MTT assay, normal cell line, CC50, read-out: In vitro cytotoxicity IC50, HEK293
# [5] = tested on: human liver cancer cells (HepG2); assay: MTT antiproliferative assay, HepG2; type: cell-based; conditions: for inhibition at 10 µM: read-out: Inhibition rate, HepG2; for IC50: MTT assay, 48 h, read-out: In vitro cytotoxicity IC50, HepG2
# Method: as §1
# [6] = tested on: human prostate cancer cells (PC-3); assay: MTT antiproliferative assay, PC-3; type: cell-based; conditions: Homo sapiens; for IC50: 48 h, MTT assay, read-out: In vitro cytotoxicity IC50, PC-3; for inhibition at 10 µM: read-out: Inhibition rate, PC-3
# Method: as §1
# [7] = K562, 48 h, MTT assay, 48 h, read-out: In vitro cytotoxicity IC50, K562
# [8] = A549, 48 h, MTT assay, 48 h, read-out: In vitro cytotoxicity IC50, A549
SMILES,inhibition at 10 µM [1] [%],"IC50 [1, 7] [µM]",inhibition at 10 µM [2] [%],"IC50 [2, 8] [µM]",inhibition at 10 µM [3] [%],IC50 at 48 h [4] [µM],inhibition at 10 µM [5] [%],IC50 [5] [µM],IC50 [6] [µM],inhibition at 10 µM [6] [%],melting point [°C],"IC50 ([1]; K562, Table 2, unit inferred, repeats Table 1, read-out: K562 (IC50, Table 2)) [µM]","IC50 ([2]; A549, Table 2, unit inferred, repeats Table 1, read-out: A549 (IC50, Table 2)) [µM]","CC50 ([4]; HEK293 cells, Table 2, unit inferred, repeats Table 1) [µM]"
"COc1ccc(-c2nnc(SCC(=O)Nc3cc(-c4c[nH]c5ccccc45)n[nH]3)n2N)cc1 [Compound 11e, N-(3-(1H-indol-3-yl)-1H-pyrazol-5-yl)-2-((4-amino-5–(4-methoxyphenyl)-4H-1,2,4-triazol-3-yl)thio)acetamide]",98.7 ± 0.418,4.32 ± 0.53,47.9 ± 9.44,21.4 ± 4.46,67.3 ± 1.39,4.94 ± 0.75,63.5 ± 20,10.4 ± 2.86,11.7 ± 1.64,54.7 ± 14.8,238 to 240,–,–,–
"Nn1c(SCC(=O)Nc2cc(-c3c[nH]c4ccccc34)n[nH]2)nnc1-c1ccccn1 [Compound 11i, N-(3-(1H-indol-3-yl)-1H-pyrazol-5-yl)-2-((4-amino-5-(pyridine-2-yl)-4H-1,2,4-triazol-3-yl)thio)acetamide]",99.5 ± 0.155,1.26 ± 0.24,94.8 ± 1.91,2.97 ± 0.83,67.1 ± 2.18,1.45 ± 0.22,95.3 ± 3.04,2.5 ± 1.44,2.77 ± 0.91,83.6 ± 5.66,208 to 210,–,–,–
"O=C(CSc1nnc(-c2ccccn2)s1)Nc1cc(-c2c[nH]c3ccccc23)n[nH]1 [Compound 10i, N-(3-(1H-indol-3-yl)-1H-pyrazol-5-yl)-2-((5-(pyridine-2-yl)-1,3,4-thiadiazol-2-yl)thio)acetamide]",40.5 ± 6.54,12.5 ± 2.46,35.7 ± 2.75,12 ± 1.46,46.5 ± 7.5,26.3 ± 1.63,51.9 ± 5.57,8.37 ± 2.29,24.1 ± 5.07,30.5 ± 9.1,226 to 228,–,–,–
"Nn1c(SCC(=O)Nc2cc(-c3c[nH]c4ccccc34)n[nH]2)nnc1-c1ccccc1 [Compound 11k, N-(3-(1H-indol-3-yl)-1H-pyrazol-5-yl)-2-((4-amino-5-phenyl-4H-1,2,4-triazol-3-yl)thio)acetamide]",19.2 ± 3.55,39.7 ± 7.96,23.2 ± 0.539,23.9 ± 3.08,0.497 ± 5.03,23.6 ± 4.14,11.1 ± 0.757,73.1 ± 8.07,25.4 ± 2.77,23.1 ± 3.99,> 300,–,–,–
"Nn1c(Cc2ccc(Cl)cc2)nnc1SCC(=O)Nc1cc(-c2c[nH]c3ccccc23)n[nH]1 [Compound 11d, N-(3-(1H-indol-3-yl)-1H-pyrazol-5-yl)-2-((4-amino-5–(4-chlorobenzyl)-4H-1,2,4-triazol-3-yl)thio)acetamide]",95.4 ± 0.809,3.51 ± 1.05,87.4 ± 12.5,4.79 ± 0.21,63.4 ± 7.49,11.6 ± 0.87,16.3 ± 2.1,49.6 ± 10.2,8.42 ± 0.56,56.2 ± 9.24,240 to 241,–,–,–
"Nn1c(SCC(=O)Nc2cc(-c3c[nH]c4ccccc34)n[nH]2)nnc1-c1c[nH]c2ccccc12 [Compound 11n, N-(3-(1H-indol-3-yl)-1H-pyrazol-5-yl)-2-((4-amino-5-(1H-indol-3-yl)-4H-1,2,4-triazol-3-yl)thio)acetamide]",97.1 ± 0.377,4.38 ± 0.45,31 ± 0.996,31.3 ± 3.29,44.7 ± 4.73,5.02 ± 1.29,80.5 ± 3.62,2.76 ± 1.74,10.4 ± 0.46,56.6 ± 12.9,230 to 232,–,–,–
"Nn1c(SCC(=O)Nc2cc(-c3c[nH]c4ccccc34)n[nH]2)nnc1-c1ccccc1Cl [Compound 11j, N-(3-(1H-indol-3-yl)-1H-pyrazol-5-yl)-2-((4-amino-5–(2-chlorophenyl)-4H-1,2,4-triazol-3-yl)thio)acetamide]",14.3 ± 0.525,42.4 ± 3.6,13.7 ± 1.49,56.8 ± 5.27,10.9 ± 7.59,63 ± 0.87,14.4 ± 0.686,50.6 ± 4.69,34.4 ± 2.57,17.8 ± 2.85,136 to 138,–,–,–
"Nn1c(SCC(=O)Nc2cc(-c3c[nH]c4ccccc34)n[nH]2)nnc1-c1cccnc1 [Compound 11h, N-(3-(1H-indol-3-yl)-1H-pyrazol-5-yl)-2-((4-amino-5-(pyridine-3-yl)-4H-1,2,4-triazol-3-yl)thio)acetamide]",98.6 ± 0.417,0.06,97.8 ± 0.354,1.15 ± 0.26,77.8 ± 4.16,1.79 ± 0.63,93.6 ± 0.215,1.23 ± 0.06,3.16 ± 0.23,65.1 ± 0.595,195 to 197,0.0639 ± 0.02,1.15 ± 0.26,1.79 ± 0.63
"O=C(CSc1nnc(Cc2ccc(Cl)cc2)s1)Nc1cc(-c2c[nH]c3ccccc23)n[nH]1 [Compound 10d, N-(3-(1H-indol-3-yl)-1H-pyrazol-5-yl)-2-((5-(4-chlorobenzyl)-1,3,4-thiadiazol-2-yl)thio)acetamide]",96.1 ± 1.29,0.184 ± 0.02,90.7 ± 6.19,1.28 ± 0.33,84.7 ± 2.75,0.74 ± 1.25,93.7 ± 1.88,0.732 ± 0.15,1.6 ± 0.44,82.6 ± 4.95,151 to 153,–,–,–
"Nn1c(SCC(=O)Nc2cc(-c3c[nH]c4ccccc34)n[nH]2)nnc1-c1ccc(Br)cc1 [Compound 11m, N-(3-(1H-indol-3-yl)-1H-pyrazol-5-yl)-2-((4-amino-5–(4-bromophenyl)-4H-1,2,4-triazol-3-yl)thio)acetamide]",98.5 ± 0.434,2.57 ± 0.43,71.7 ± 5.61,5.81 ± 0.69,54.2 ± 5.97,5.81 ± 0.88,60.9 ± 7.02,10.7 ± 5.21,21.3 ± 2.75,32.8 ± 6.5,270 to 272,–,–,–
"Nc1ccc(-c2nnc(SCC(=O)Nc3cc(-c4c[nH]c5ccccc45)n[nH]3)n2N)cc1 [Compound 11l, N-(3-(1H-indol-3-yl)-1H-pyrazol-5-yl)-2-((4-amino-5–(4-aminophenyl)-4H-1,2,4-triazol-3-yl)thio)acetamide]",99 ± 0.2,0.363 ± 0.1,96.7 ± 0.847,1.73 ± 0.3,79.6 ± 2.23,1.38 ± 1.17,93.5 ± 1.56,1.37 ± 0.57,2.88 ± 0.1,71.9 ± 4.55,213 to 215,–,–,–
